# Values of other authors, collected in publication PMC9410468 (Marine Drugs, 2022).
# System: rats
# Conditions: rats; selective α3β4 nAChR antagonists; cited from earlier work
# Text: In the mammalian brain, the medial habenula (MHB) expresses high nAChR levels. Recently, α3-containing nAChRs present in the medial habenula have attracted substantial attention because of their potential role in influencing nicotine addiction. In addition, recent studies have shown that the gene polymorphism of the α3 and β4 subunits in vivo are related to nicotine addiction and drug abuse. The α3β4 nAChR subtype is mainly located in the MHB, […] (IPN), and fasciculus retroflexus (FR) of the rat brain. In addition, it is also expres ...
structure (smiles),measurement,value
"COCC[C@H]1CC2CN3CCc4c([nH]c5ccccc45)[C@](C(=O)OC)(C2)[C@H]13 [18-methoxycoronaridine (18-MC), 18-methoxycoronaridine]",effect on nicotine self-administration (in words),reduce nicotine self-administration in rats
